Here are results for one molecule from US8017786B2, “Substituted β-phenyl-α-hydroxy-propanoic acid, synthesis method and use thereof” (Northwest University, priority 2006, dated 2011).

The subject of the assay is superoxide dismutase (SOD). In words: Serum SOD activity in rats with myocardial ischemia. The class given is in vivo, rat. Conditions: for SOD: serum, 24 h after ligation. How it is done:
At 0.5 h after the rats of these groups were administered intragastrically, the standard II lead electrocardiogram (before modeling) was recorded, and the height of ST-T segment was measured. The rats of sham operation group were then subjected to coronary artery braid without ligation, and the rats of other groups were subjected to coronary artery ligation in accordance with the following method to establish cute myocardial ischemia models. The rats were subjected to etherization, fixed at supine position, and their normal electrocardiograms (before modeling) were recorded. The skin of left thorax was incised under aseptic conditions, the 4th intercostal muscles were isolated in blunt way, the heart was extruded by light pressure to the right thorax, the left anterior descending coronary artery was ligated at a position 2˜3 mm departing from the left coronary artery origin and between the pulmonary conus and the left auricle of heart, then the heart was sent back to thorax cavity immediately and sutured the incision. Penicillin was smeared topically for the prevention of infections. After operation, the electrocardiogram of postischemia was recorded immediately (at 0 min after modeling), and the height of ST-T segment was measured.

As for `CC1(C)C2CCC1(C)C(OC(=O)C(O)Cc1ccc(O)c(O)c1)C2` (stereo not drawn) [bornyl salvianate ester, bornyl β-(3,4-dihydroxylphenyl)-α-hydroxylpropionate ester], the SOD was 117.66 ± 31.97 U/mL (10 mg/kg intragastric), 111.32 ± 20.36 U/mL (20 mg/kg intragastric) and 119.63 ± 23.53 U/mL (40 mg/kg intragastric). Also, under “especially in the large dose group”, the “superoxide dismutase (SOD) (in words)” value is reported as “increased”.
